Measurements published in patent US20260000632A1, “STRUCTURALLY MODIFIED FATTY ACIDS FOR IMPROVING GLYCEMIC CONTROL AND TREATING INFLAMMATORY BOWEL DISEASE” (Northsea Therapeutics B.V., priority 2018, published 2026).
Read-outs that look alike come from different tables or passages of the source.

How the values were obtained:
ob/ob mice [1] = experiment: Oral glucose (2 g/kg) tolerance test after 5 weeks treatment in ob/ob mice; assay type: in vivo, mouse; settings: for Plasma glucose AUC (0-120 min) / Plasma glucose, 0 min / Plasma glucose, 15 min / Plasma glucose, 30 min / Plasma glucose, 45 min / Plasma glucose, 60 min / Plasma glucose, 120 min: OGTT 2 g/kg, mean
Procedure: (§1) Mice were fed a standard low-fat (7% w/w fat) diet. After 4-weeks, the mice were fasted for 4 hours and the effects of Compound A were assessed. Assessment of the effects of Compound A included basal levels of blood glucose, plasma insulin, HbA1c levels, and homeostatic model assessment of insulin resistance (HOMA-IR). HOMA-IR is an assessment of insulin resistance and is calculated by the following formula: fasting insulin (micro U/L)×fasting glucose […]/22.5.
After 5 weeks, an oral glucose (2 g/kg) tolerance test was performed after a 4 hour fast.

plasma insulin = experiment: Plasma insulin at 24 h in lean male SPD rats; assay type: in vivo, rat; settings: Compound A 74 mg/kg or Compound B 84 mg/kg oral, non-significant
Procedure: (§2) To establish the acute effects of oral administration of Compound A and Compound B upon active GLP-1 and insulin concentrations, lean (about 300 g) male Sprague-Dawley (SPD) rats were divided into groups (n=6-8) and fed 74 and 84 mg/kg body weight of Compound A or Compound B respectively, either with or without concurrent administration of a dipeptidyl peptidase 4 (DPP-4) inhibitor 60 minutes prior to an oral glucose tolerance test (OGTT) as outlined below. Parallel groups receiving either corn oil alone (corn oil+vehicle, n=10) or corn oil and a DPP-4 inhibitor (“DPP-4 i”) (corn oil+ (DPP-4 i), n=10) were included as controls. The DPP-4 inhibitor was linagliptin.
(§3) A second oral dose of 74 and 84 mg/kg bodyweight of Compound A or Compound B respectively was administered at 240 minutes and ad lib feeding was initiated. A second dose of DPP-4 inhibitor was administered at 480 mins prior to lights out. Blood samples were collected at 24 h for measurement of active GLP-1 and insulin. All values are mean, figures depict mean values (SEM).

ob/ob mice [2] = experiment: Chronic treatment in ob/ob mice: basal parameters after 4 weeks; assay type: in vivo, mouse; settings: 4 weeks diet admix, 4 h fast, Compound A 135, fenofibrate 100, pioglitazone 30 mg/kg bw/d, mean ± SEM; for Plasma adiponectin: control 4.3 ± 0.4; for Blood HbA1c: control 8.4 ± 0.4; for HOMA-IR: control 65.7 ± 9.8; for Plasma insulin: control 73.2 ± 13.6; for Plasma ALT: control 271.4 ± 18.8; for Blood glucose: control 380.8 ± 26.3
Procedure: as §1

atherogenic lipids [3] = settings: APOE*3.CETP mice; cited from earlier work
atherogenic lipids [4] = settings: humans; cited from earlier work
ob/ob mice [5] = experiment: Glucose tolerance after 21-day treatment in high-fat diet fed ob/ob mice; assay type: in vivo, mouse; settings: 112 mg/kg once-daily via diet, 21 days
Procedure: This study was carried out to assess the effects of chronic treatment with Compound B or Compound A on glucose tolerance in a T2DM rodent model.
For assessing the effects of Compound A, ob/ob mice were fed a high-fat diet (comprising 2% cholesterol, 40% fat (containing 18% trans-fatty acids), 20% fructose) for 15 weeks starting at age 5 weeks. […] After 21 days the mice received a 2 g/kg oral glucose load. After the oral glucose load, plasma glucose was measured at multiple time points from 0-240 minutes.

active GLP-1 = experiment: Active GLP-1 during oral glucose tolerance test (OGTT) and at 24 h in lean male SPD rats; assay type: in vivo, rat
Procedure: as §2, §3

GLP-1 = settings: direct colonic delivery, rodents; cited from earlier work
[6] = 15 mg/kg bw/d diet admix 5 weeks
[7] = 45 mg/kg bw/d diet admix 5 weeks
[8] = 135 mg/kg bw/d diet admix 5 weeks
[9] = reference drugs: fenofibrate 100, pioglitazone 30 mg/kg bw/d diet admix 5 weeks

Structure (SMILES): CC/C=C\C/C=C\C/C=C\C/C=C\C/C=C\CCCCOC(CC)C(=O)O (centres unmarked) [Compound A, 2-(((5Z,8Z,11Z,14Z,17Z)-icosa-5,8,11,14,17-pentaen-1-yl)oxy)butanoic acid]
- Plasma glucose AUC (0-120 min) (ob/ob mice [1]; [6]): 1760 mM·min
- Plasma glucose, 0 min (ob/ob mice [1]; [6]): 11.4 mM
- Plasma glucose, 15 min (ob/ob mice [1]; [6]): 37.5 mM
- Plasma glucose, 30 min (ob/ob mice [1]; [6]): 34.4 mM
- Plasma glucose, 45 min (ob/ob mice [1]; [6]): 28.0 mM
- Plasma glucose, 60 min (ob/ob mice [1]; [6]): 25.5 mM
- Plasma glucose, 120 min (ob/ob mice [1]; [6]): 19.6 mM
- Plasma glucose AUC (0-120 min) (ob/ob mice [1]; [7]): 1110 mM·min
- Plasma glucose, 0 min (ob/ob mice [1]; [7]): 13.3 mM
- Plasma glucose, 15 min (ob/ob mice [1]; [7]): 36.5 mM
- Plasma glucose, 30 min (ob/ob mice [1]; [7]): 30.1 mM
- Plasma glucose, 45 min (ob/ob mice [1]; [7]): 24.5 mM
- Plasma glucose, 60 min (ob/ob mice [1]; [7]): 21.0 mM
- Plasma glucose, 120 min (ob/ob mice [1]; [7]): 15.3 mM
- Plasma glucose AUC (0-120 min) (ob/ob mice [1]; [8]): 816 mM·min
- Plasma glucose, 0 min (ob/ob mice [1]; [8]): 9.2 mM
- Plasma glucose, 15 min (ob/ob mice [1]; [8]): 27.7 mM
- Plasma glucose, 30 min (ob/ob mice [1]; [8]): 22.1 mM
- Plasma glucose, 45 min (ob/ob mice [1]; [8]): 14.6 mM
- Plasma glucose, 60 min (ob/ob mice [1]; [8]): 13.4 mM
- Plasma glucose, 120 min (ob/ob mice [1]; [8]): 12.8 mM
- Lowering of glucose levels in oral glucose tolerance test (ob/ob mice [1]; 15, 45, 135 mg/kg bw/d diet admix 5 weeks): dose-dependent response in lowering glucose levels
- Increase in plasma insulin concentration at 24 h versus corn oil+vehicle and corn oil+DPP4 inhibitor (plasma insulin; compound alone): 25%
- Increase in plasma insulin concentration at 24 h versus corn oil+vehicle and corn oil+DPP4 inhibitor (plasma insulin; in combination with DPP4 inhibitor): 25%
- Plasma adiponectin (ob/ob mice [2]): 3.8 ± 0.4 µg/mL
- Blood HbA1c (ob/ob mice [2]): 4.5 ± 0.1 %
- HOMA-IR (ob/ob mice [2]): 8.6 ± 3.6
- Plasma insulin (ob/ob mice [2]): 17.6 ± 6.8 ng/mL
- Plasma ALT (ob/ob mice [2]): 180.6 ± 14.6 U/L
- Blood glucose (ob/ob mice [2]): 191.5 ± 6.1 mg/dL
- Effect on atherogenic lipids (atherogenic lipids [3]): significantly reduce atherogenic lipids
- Effect on atherogenic lipids (atherogenic lipids [4]): significantly reduce atherogenic lipids
- Glucose tolerance from 15 minutes through 90 minutes post-glucose load compared to vehicle (ob/ob mice [5]): significantly improved glucose tolerance
- AUC glucose (ob/ob mice [5]; p<0.01): significantly reduced AUC glucose
- Effect on active GLP-1 concentration at 24 h versus corn oil+vehicle (active GLP-1; in combination with DPP4 inhibitor, Compound A 74 mg/kg or Compound B 84 mg/kg oral, two doses): significantly (p<0.05) increased

Structure (SMILES): CC/C=C\C/C=C\C/C=C\C/C=C\C/C=C\C/C=C\CCC(=O)O [DHA]
- GLP-1 secretion (GLP-1): able to induce GLP-1 secretion

Structure (SMILES): CC#CCn1c(N2CCC[C@@H](N)C2)nc2c1c(=O)n(Cc1nc(C)c3ccccc3n1)c(=O)n2C [DPP4 inhibitor, linagliptin, reference compound]
- Effect on active GLP-1 concentration at 24 h (active GLP-1; corn oil+DPP4 inhibitor alone): no significant effect
- Effect on active GLP-1 (AUC 0-60 mins) versus corn oil alone (active GLP-1; corn oil+DPP4 inhibitor alone, OGTT): no significant effect

Structure (SMILES): CC(C)OC(=O)C(C)(C)Oc1ccc(C(=O)c2ccc(Cl)cc2)cc1 [Fenofibrate, fenofibrate, reference compound]
- Plasma glucose AUC (0-120 min) (ob/ob mice [1]; [9]): 1420 mM·min
- Plasma glucose, 0 min (ob/ob mice [1]; [9]): 15.4 mM
- Plasma glucose, 15 min (ob/ob mice [1]; [9]): 35.9 mM
- Plasma glucose, 30 min (ob/ob mice [1]; [9]): 35.9 mM
- Plasma glucose, 45 min (ob/ob mice [1]; [9]): 30.6 mM
- Plasma glucose, 60 min (ob/ob mice [1]; [9]): 28.2 mM
- Plasma adiponectin (ob/ob mice [2]): 5.0 ± 0.4 µg/mL
- Blood HbA1c (ob/ob mice [2]): 4.8 ± 0.2 %
- HOMA-IR (ob/ob mice [2]): 20.3 ± 5.9
- Plasma insulin (ob/ob mice [2]): 35.5 ± 9.0 ng/mL
- Plasma ALT (ob/ob mice [2]): 224.0 ± 27.4 U/L
- Blood glucose (ob/ob mice [2]): 220.3 ± 8.1 mg/dL

Structure (SMILES): CCc1ccc(CCOc2ccc(CC3SC(=O)NC3=O)cc2)nc1 (centres unmarked) [Pioglitazone, pioglitazone, reference compound]
- Plasma glucose AUC (0-120 min) (ob/ob mice [1]; [9]): 879 mM·min
- Plasma glucose, 0 min (ob/ob mice [1]; [9]): 7.8 mM
- Plasma glucose, 15 min (ob/ob mice [1]; [9]): 24.2 mM
- Plasma glucose, 30 min (ob/ob mice [1]; [9]): 18.5 mM
- Plasma glucose, 45 min (ob/ob mice [1]; [9]): 17.3 mM
- Plasma glucose, 60 min (ob/ob mice [1]; [9]): 15.2 mM
- Plasma glucose, 120 min (ob/ob mice [1]; [9]): 10.9 mM
- Blood HbA1c (ob/ob mice [2]): 3.8 ± 0.1 %
- HOMA-IR (ob/ob mice [2]): 2.1 ± 0.3
- Plasma insulin (ob/ob mice [2]): 5.7 ± 0.8 ng/mL
- Plasma ALT (ob/ob mice [2]): 257.3 ± 15.5 U/L
- Blood glucose (ob/ob mice [2]): 147.5 ± 3.1 mg/dL
